Drawing on US20260146035A1, “FUSED BICYCLIC COMPOUNDS AND THEIR USE AS MER AND AXL INHIBITORS” (DONG-A ST CO., LTD., priority 2022, published 2026), this text covers IC50 for 14 molecules.

One may read the IC50 as the concentration at which inhibition is half-maximal.

One assay addresses T1, human TYRO3 (455-end) (Homo sapiens, UniProt Q06418).
T1 construct: TYRO3 (455-end); purchased SignalChem, Canada
T1 sequence (Q06418 455-890 limits assumed): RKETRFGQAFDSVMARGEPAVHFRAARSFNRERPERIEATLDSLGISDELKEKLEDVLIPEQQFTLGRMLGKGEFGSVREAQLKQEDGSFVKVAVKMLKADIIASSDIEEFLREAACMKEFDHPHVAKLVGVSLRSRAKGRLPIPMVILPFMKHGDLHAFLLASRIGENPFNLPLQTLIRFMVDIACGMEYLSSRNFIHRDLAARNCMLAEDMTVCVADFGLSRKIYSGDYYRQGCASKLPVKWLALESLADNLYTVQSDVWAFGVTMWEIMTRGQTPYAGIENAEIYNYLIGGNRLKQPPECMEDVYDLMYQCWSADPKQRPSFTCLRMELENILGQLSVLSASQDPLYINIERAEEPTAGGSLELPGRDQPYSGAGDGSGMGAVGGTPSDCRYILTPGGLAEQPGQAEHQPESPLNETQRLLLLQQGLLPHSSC
The experiment in a line: HTRF kinase activity biochemical assay, TYRO3. The note with it: 10 μM ATP, 30 minutes pre-incubation; read-out: HTRF TYRO IC50.

Another assay has as its target T2, human MER (528-end) (Homo sapiens, UniProt Q12866).
T2 construct: human MER (528-end); purchased Camnabio, Japan
T2 sequence (Q12866 528-999 limits assumed): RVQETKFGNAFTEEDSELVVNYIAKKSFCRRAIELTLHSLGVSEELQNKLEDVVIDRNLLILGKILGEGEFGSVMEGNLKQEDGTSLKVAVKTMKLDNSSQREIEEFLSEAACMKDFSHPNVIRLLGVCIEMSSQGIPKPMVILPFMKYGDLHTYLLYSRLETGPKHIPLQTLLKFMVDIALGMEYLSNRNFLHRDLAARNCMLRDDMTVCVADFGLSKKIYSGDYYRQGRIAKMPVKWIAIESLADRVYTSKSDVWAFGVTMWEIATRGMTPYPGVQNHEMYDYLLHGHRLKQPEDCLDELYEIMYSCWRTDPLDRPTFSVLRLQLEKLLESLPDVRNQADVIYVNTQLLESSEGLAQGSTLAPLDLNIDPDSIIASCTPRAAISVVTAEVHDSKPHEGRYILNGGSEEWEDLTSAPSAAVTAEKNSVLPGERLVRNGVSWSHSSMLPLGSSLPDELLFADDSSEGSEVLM
Nature of the assay: HTRF kinase activity biochemical assay, MER. The note with it: 10 μM ATP, 30 minutes pre-incubation; read-out: HTRF MERTK IC50. As for the experimental part: For the SAR (structure-activity relationship) and compound screening, HTRF (Homogeneous Time Resolved Fluorescence) kinase activity assay was employed for all MER, AXL and TYRO3 kinases using Cisbio HTRF® KinEASE™-TK kit (Cisbio, USA). The kit included biotin-labeled TK substrate, streptavidin-XL665, Eu3+-cryptate-labeled TK antibody and HTRF® Detection buffer. There are two main steps in the kinase assay: kinase reaction and detection of phosphorylated substrate. The reaction was carried out in white low volume 384-well plate (Corning, USA) with 25 nL compound in dimethyl sulfoxide in each well. […] After 1 hour incubation at room temperature, the fluorescence intensity was measured with Envision[…] plate reader (PerkinElmer, USA). Upon excitation at 340 nm by UV, the energy from Eu3+ donor of the antibody is transferred to the FRET acceptor XL665, and […] emits light at 665 nm.
A general note: Time-resolved FRET reads energy transfer from a long-lived donor to a nearby acceptor.

The next assay deals with T3, human AXL (473-end) (Homo sapiens, UniProt P30530).
T3 construct: human AXL (473-end); purchased SignalChem, Canada
T3 sequence (P30530 473-894 limits assumed): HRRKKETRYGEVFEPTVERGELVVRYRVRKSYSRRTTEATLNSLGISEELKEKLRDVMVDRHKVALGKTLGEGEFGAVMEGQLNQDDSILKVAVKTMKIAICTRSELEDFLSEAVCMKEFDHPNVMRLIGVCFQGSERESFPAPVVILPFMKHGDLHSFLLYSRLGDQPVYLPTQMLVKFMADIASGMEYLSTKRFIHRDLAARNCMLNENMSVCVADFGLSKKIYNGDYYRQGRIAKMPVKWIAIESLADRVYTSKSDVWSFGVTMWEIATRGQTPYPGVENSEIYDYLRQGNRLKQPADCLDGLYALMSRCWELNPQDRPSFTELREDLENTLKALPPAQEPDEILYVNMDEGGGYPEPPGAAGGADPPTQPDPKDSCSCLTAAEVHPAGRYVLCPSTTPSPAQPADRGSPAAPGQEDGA
The experiment in a line: HTRF kinase activity biochemical assay, AXL. The note with it: 10 μM ATP, 30 minutes pre-incubation.

Turning to `CN1CCC(c2c[nH]c3cc(-c4ccc(CO[C@H]5CCC[C@@H]5NC(=O)c5cc(-c6cnn(C)c6)cnc5N)cc4)ccc23)CC1` [Example 15, 2-amino-N-[(1S,2S)-2-({4-[3-(1-methylpiperidin-4-yl)-1H-indol-6-yl]phenyl}methoxy)cyclopentyl]-5-(1-methyl-1H-pyrazol-4-yl)pyridine-3-carboxamide], the values for the IC50 at human TYRO3 (455-end), at human MER (528-end) and on human AXL (473-end) were over 1000 nM, 10 to 100 nM and 100 to 1000 nM, respectively.
In the case of `Cn1cc(-c2cnc(N)c(C(=O)N[C@H]3COC[C@@H]3OCc3ccc(-c4ccc5c(ccn5C)c4)cc3)c2)cn1` [Example 16, 2-amino-N-[(3S,4R)-4-{[4-(1-methyl-1H-indol-5-yl)phenyl]methoxy}oxolan-3-yl]-5-(1-methyl-1H-pyrazol-4-yl)pyridine-3-carboxamide], the values for the half-inhibitory concentration (IC50) at human TYRO3 (455-end), on human MER (528-end) and at human AXL (473-end) were over 1000 nM, 10 to 100 nM and 10 to 100 nM, respectively.
Take `CN1CC(C)(C)c2cc(-c3ccc(CO[C@H]4CCC[C@@H]4NC(=O)c4cc(-c5cnn(C)c5)cnc4N)cc3)ccc21` [Example 17, 2-amino-5-(1-methyl-1H-pyrazol-4-yl)-N-[(1S,2S)-2-{[4-(1,3,3-trimethyl-2,3-dihydro-1H-indol-5-yl)phenyl]methoxy}cyclopentyl]pyridine-3-carboxamide]: the values for the IC50 at human TYRO3 (455-end), on human MER (528-end) and on human AXL (473-end) were over 1000 nM, 10 to 100 nM and 10 to 100 nM, respectively.
With `Cn1cc(-c2cnc(N)c(C(=O)N[C@H]3COC[C@@H]3OCc3ccc(-c4ccc5c(c4)CCC5N4CCN(CCO)CC4)cc3)c2)cn1` (stereo partly drawn) [Example 18, 2-amino-N-{(3S,4R)-4-[(4-{1-[4-(2-hydroxyethyl)piperazin-1-yl]-2,3-dihydro-1H-inden-5-yl}phenyl)methoxy]oxolan-3-yl}-5-(1-methyl-1H-pyrazol-4-yl)pyridine-3-carboxamide], the values for the IC50 at human TYRO3 (455-end), on human MER (528-end) and on human AXL (473-end) were 100 to 1000 nM, under 10 nM and 10 to 100 nM, respectively.
The matching figures for `Nc1ncc(-c2ccc(F)nc2)cc1C(=O)N[C@H]1CCC[C@@H]1OCc1ccc(-c2ccc3c(c2)CCC3N2CCN(CCO)CC2)cc1` (stereo partly drawn) [Example 19, 6-amino-6′-fluoro-N-{(1S,2S)-2-[(4-{1-[4-(2-hydroxyethyl)piperazin-1-yl]-2,3-dihydro-1H-inden-5-yl}phenyl)methoxy]cyclopentyl}[3,3′-bipyridine]-5-carboxamide]: 100 to 1000 nM, under 10 nM and under 10 nM.
Regarding `Nc1ncc(-c2ccc(F)nc2)cc1C(=O)N[C@H]1COC[C@@H]1OCc1ccc(-c2ccc3c(c2)CCC3N2CCN(CCO)CC2)cc1` (stereo partly drawn) [Example 20, 6-amino-6′-fluoro-N-{(3S,4R)-4-[(4-{1-[4-(2-hydroxyethyl)piperazin-1-yl]-2,3-dihydro-1H-inden-5-yl}phenyl)methoxy]oxolan-3-yl}[3,3′-bipyridine]-5-carboxamide], the half-inhibitory concentration (IC50) was over 1000 nM on human TYRO3 (455-end), under 10 nM on human MER (528-end) and 10 to 100 nM on human AXL (473-end).
In the case of `Nc1ncc(C(F)(F)F)cc1C(=O)N[C@H]1CCC[C@@H]1OCc1ccc(-c2ccc3c(ccn3C3CCN(CCO)CC3)c2)cc1` [Example 21, 2-amino-N-{(1S,2S)-2-[(4-{1-[1-(2-hydroxyethyl)piperidin-4-yl]-1H-indol-5-yl}phenyl)methoxy]cyclopentyl}-5-(trifluoromethyl)pyridine-3-carboxamide], the IC50 on human TYRO3 (455-end) is over 1000 nM; on human MER (528-end) it was under 10 nM; at human AXL (473-end), 10 to 100 nM.
The matching figures for `Nc1ncc(-c2ccc(F)nc2)cc1C(=O)N[C@H]1CCC[C@@H]1OCc1ccc(-c2ccc3c(ccn3C3CCN(CCO)CC3)c2)cc1` [Example 22, 6-amino-6′-fluoro-N-{(1S,2S)-2-[(4-{1-[1-(2-hydroxyethyl)piperidin-4-yl]-1H-indol-5-yl}phenyl)methoxy]cyclopentyl}[3,3′-bipyridine]-5-carboxamide]: 100 to 1000 nM, under 10 nM and 10 to 100 nM.
The matching figures for `Cn1cc(-c2cnc(N)c(C(=O)N[C@H]3CCC[C@@H]3OCc3ccc(-c4ccc5c(c4)C(C)(C)CN5C4CCN(CC(O)CO)CC4)cc3)c2)cn1` (stereo partly drawn) [Example 23, 2-amino-N-{(1S,2S)-2-[(4-{1-[1-(2,3-dihydroxypropyl)piperidin-4-yl]-3,3-dimethyl-2,3-dihydro-1H-indol-5-yl}phenyl)methoxy]cyclopentyl}-5-(1-methyl-1H-pyrazol-4-yl)pyridine-3-carboxamide]: under 10 nM, under 10 nM and under 10 nM.
Regarding `Nc1ncc(C(F)(F)F)cc1C(=O)N[C@H]1COC[C@@H]1OCc1ccc(-c2ccc3c(ccn3C3CCN(CCO)CC3)c2)cc1` [Example 24, 2-amino-N-{(3S,4R)-4-[(4-{1-[1-(2-hydroxyethyl)piperidin-4-yl]-1H-indol-5-yl}phenyl)methoxy]oxolan-3-yl}-5-(trifluoromethyl)pyridine-3-carboxamide], the concentration for half-maximal inhibition (IC50) was over 1000 nM on human TYRO3 (455-end), 10 to 100 nM at human MER (528-end) and 100 to 1000 nM at human AXL (473-end).
For `Nc1ncc(-c2ccc(F)nc2)cc1C(=O)N[C@H]1COC[C@@H]1OCc1ccc(-c2ccc3c(ccn3C3CCN(CCO)CC3)c2)cc1` [Example 25, 6-amino-6′-fluoro-N-{(3S,4R)-4-[(4-{1-[1-(2-hydroxyethyl)piperidin-4-yl]-1H-indol-5-yl}phenyl)methoxy]oxolan-3-yl}[3,3′-bipyridine]-5-carboxamide] the same measures were over 1000 nM, under 10 nM and 10 to 100 nM.
For `Cn1cc(-c2cnc(N)c(C(=O)N[C@H]3CCC[C@@H]3OCc3ccc(-c4ccc5c(C6CCN(CCO)CC6)cn(C)c5c4)cc3)c2)cn1` [Example 26, 2-amino-N-{(1S,2S)-2-[(4-{3-[1-(2-hydroxyethyl)piperidin-4-yl]-1-methyl-1H-indol-6-yl}phenyl)methoxy]cyclopentyl}-5-(1-methyl-1H-pyrazol-4-yl)pyridine-3-carboxamide] the same measures were over 1000 nM, under 10 nM and 10 to 100 nM.
For `Cn1cc(-c2cnc(N)c(C(=O)N[C@H]3CCC[C@@H]3OCc3ccc(-c4ccc5c(c4)C(C)(C)CN5C4CCN(CC(N)=O)CC4)cc3)c2)cn1` [Example 27, 2-amino-N-{(1S,2S)-2-[(4-{1-[1-(2-amino-2-oxoethyl)piperidin-4-yl]-3,3-dimethyl-2,3-dihydro-1H-indol-5-yl}phenyl)methoxy]cyclopentyl}-5-(1-methyl-1H-pyrazol-4-yl)pyridine-3-carboxamide] the same measures were 100 to 1000 nM, under 10 nM and 10 to 100 nM.
With `Cn1cc(-c2cnc(N)c(C(=O)N[C@H]3CCC[C@@H]3OCc3ccc(-c4ccc5c(c4)C4(CC4)CN5C4CCN(CCO)CC4)cc3)c2)cn1` [Example 28, 2-amino-N-{(1S,2S)-2-[(4-{1′-[1-(2-hydroxyethyl)piperidin-4-yl]-1′,2′-dihydrospiro[cyclopropane-1,3′-indol]-5′-yl}phenyl)methoxy]cyclopentyl}-5-(1-methyl-1H-pyrazol-4-yl)pyridine-3-carboxamide], the half-inhibitory concentration (IC50) on human TYRO3 (455-end), at human MER (528-end) and on human AXL (473-end) was 10 to 100 nM each time.
